Test results from the NIST ThermoML archive (doi:10.1016/j.jct.2008.11.003).
Numbers after ± are expanded uncertainties.

Columns and labels:
[1] = 101.33 kPa, Liquid; for mass density: Vibrating tube method; for viscosity: Cone and plate viscometry
[2] = refractive index (Na D-line) (dimensionless); details: 101.33 kPa, Liquid, Standard Abbe refractometry

| SMILES | mass density ([1]; 293.15 K) [kg/m3] | viscosity ([1]; 298.2 K) [mPa·s] | mass density ([1]; 303.15 K) [kg/m3] | viscosity ([1]; 303.2 K) [mPa·s] | viscosity ([1]; 308.2 K) [mPa·s] | mass density ([1]; 313.15 K) [kg/m3] | viscosity ([1]; 313.2 K) [mPa·s] | viscosity ([1]; 318.2 K) [mPa·s] | mass density ([1]; 323.15 K) [kg/m3] | viscosity ([1]; 323.2 K) [mPa·s] | viscosity ([1]; 328.2 K) [mPa·s] | mass density ([1]; 333.15 K) [kg/m3] | viscosity ([1]; 333.2 K) [mPa·s] | viscosity ([1]; 338.2 K) [mPa·s] | mass density ([1]; 343.15 K) [kg/m3] | viscosity ([1]; 343.2 K) [mPa·s] | viscosity ([1]; 348.2 K) [mPa·s] | mass density ([1]; 353.15 K) [kg/m3] | mass density ([1]; 363.15 K) [kg/m3] | refractive index ([2]; 293.15 K) | also measured |
| --- | --- | --- | --- | --- | --- | --- | --- | --- | --- | --- | --- | --- | --- | --- | --- | --- | --- | --- | --- | --- | --- |
| CC(=O)[O-].OCC[NH2+]CCO [2,2'-azanediylbis(ethanol) acetate] | 1173.85 ± 11 | 566.89 ± 120 | 1166.39 ± 11 | 376.59 ± 77 | 260.02 ± 53 | 1160.12 ± 11 | 183.97 ± 37 | 136.06 ± 28 | 1153.96 ± 11 | 101.06 ± 20 | 78.35 ± 16 | 1147.64 ± 11 | 60.25 ± 12 | 48.79 ± 9.8 | 1141.22 ± 11 | 38.65 ± 7.8 | 31.51 ± 6.3 | 1134.66 ± 11 | 1127.97 ± 11 | 1.43431 ± 0.05 | refractive index ([2]; 298.15 K): 1.43338 ± 0.05; refractive index ([2]; 303.15 K): 1.43238 ± 0.05; refractive index ([2]; 308.15 K): 1.43137 ± 0.05; refractive index ([2]; 313.15 K): 1.43029 ± 0.05; refractive index ([2]; 318.15 K): 1.42916 ± 0.05; refractive index ([2]; 323.15 K): 1.42798 ± 0.05; refractive index ([2]; 328.15 K): 1.42673 ± 0.05; refractive index ([2]; 333.15 K): 1.42547 ± 0.05 |
| CC(=O)[O-].[NH3+]CCO [2-hydroxyethylammonium acetate] | 1148.66 ± 11 | 313.15 ± 64 | 1143.39 ± 11 | 224.68 ± 46 | 162.91 ± 33 | 1138.02 ± 11 | 120.26 ± 24 | 92.56 ± 19 | 1132.52 ± 11 | 70.68 ± 14 | 56.56 ± 11 | 1126.94 ± 11 | 43.91 ± 8.8 | 34.98 ± 7 | 1121.26 ± 11 | 29.04 ± 5.8 | 24.05 ± 4.8 | 1115.47 ± 11 | 1109.55 ± 11 | 1.43775 ± 0.05 | refractive index ([2]; 298.15 K): 1.43682 ± 0.05; refractive index ([2]; 303.15 K): 1.43593 ± 0.05; refractive index ([2]; 308.15 K): 1.4351 ± 0.05; refractive index ([2]; 313.15 K): 1.43428 ± 0.05; refractive index ([2]; 318.15 K): 1.43356 ± 0.05; refractive index ([2]; 323.15 K): 1.43287 ± 0.05; refractive index ([2]; 328.15 K): 1.43223 ± 0.05; refractive index ([2]; 333.15 K): 1.43164 ± 0.05 |
| CC(O)C(=O)[O-].[NH3+]CCO (stereo not given) [2-hydroxyethylammonium lactate] | 1204.52 ± 11 | 254.25 ± 52 | 1197.84 ± 11 | 181.45 ± 37 | 133.32 ± 27 | 1191.86 ± 11 | 100.02 ± 20 | 76.88 ± 15 | 1185.78 ± 11 | 60.18 ± 12 | 48.12 ± 9.7 | 1179.64 ± 11 | 38.12 ± 7.7 | 31.02 ± 6.2 | 1173.45 ± 11 | 24.98 ± 5 | 21.26 ± 4.3 | 1167.19 ± 11 | 1160.86 ± 11 | 1.43858 ± 0.05 | refractive index ([2]; 298.15 K): 1.43758 ± 0.05; refractive index ([2]; 303.15 K): 1.43658 ± 0.05; refractive index ([2]; 308.15 K): 1.43557 ± 0.05; refractive index ([2]; 313.15 K): 1.43455 ± 0.05; refractive index ([2]; 318.15 K): 1.43354 ± 0.05; refractive index ([2]; 323.15 K): 1.43252 ± 0.05; refractive index ([2]; 328.15 K): 1.43148 ± 0.05; refractive index ([2]; 333.15 K): 1.43043 ± 0.05 |
| CC(=O)[O-].C[NH+](CCO)CCO [N-methyldiethanolammonium acetate] | 1141.42 ± 11 | 198.91 ± 40 | 1132.76 ± 11 | 144.69 ± 29 | 108.33 ± 22 | 1125.85 ± 11 | 83.56 ± 17 | 64.12 ± 13 | 1118.75 ± 11 | 50.96 ± 10 | 40.45 ± 8.1 | 1111.46 ± 11 | 32.15 ± 6.5 | 25.98 ± 5.2 | 1103.98 ± 11 | 22.32 ± 4.5 | 18.45 ± 3.7 | 1096.28 ± 11 | 1088.36 ± 11 | 1.43302 ± 0.05 | refractive index ([2]; 298.15 K): 1.43215 ± 0.05; refractive index ([2]; 303.15 K): 1.43122 ± 0.05; refractive index ([2]; 308.15 K): 1.43023 ± 0.05; refractive index ([2]; 313.15 K): 1.42922 ± 0.05; refractive index ([2]; 318.15 K): 1.42813 ± 0.05; refractive index ([2]; 323.15 K): 1.42702 ± 0.05; refractive index ([2]; 328.15 K): 1.42583 ± 0.05; refractive index ([2]; 333.15 K): 1.42462 ± 0.05 |
| CC(O)C(=O)O.OCCNCCO [diethanolamine lactate] | 1206.34 ± 11 | 288.56 ± 59 | 1198.77 ± 11 | 204.15 ± 41 | 148.54 ± 30 | 1192.47 ± 11 | 110.25 ± 22 | 84.34 ± 17 | 1186.14 ± 11 | 65.45 ± 13 | 51.78 ± 10 | 1179.73 ± 11 | 42.15 ± 8.5 | 33.45 ± 6.7 | 1173.25 ± 11 | 27.15 ± 5.5 | 22.45 ± 4.5 | 1166.69 ± 11 | 1160.03 ± 11 | 1.44156 ± 0.05 | refractive index ([2]; 298.15 K): 1.44142 ± 0.05; refractive index ([2]; 303.15 K): 1.44109 ± 0.05; refractive index ([2]; 308.15 K): 1.44056 ± 0.05; refractive index ([2]; 313.15 K): 1.43983 ± 0.05; refractive index ([2]; 318.15 K): 1.43891 ± 0.05; refractive index ([2]; 323.15 K): 1.43776 ± 0.05; refractive index ([2]; 328.15 K): 1.43642 ± 0.05; refractive index ([2]; 333.15 K): 1.43489 ± 0.05 |
